Results taken from article PMC9602571, “Discovery of a Dual SENP1 and SENP2 Inhibitor” (International Journal of Molecular Sciences, 2022).
pIC50: −log10 of the molar value.

Legend:
SENP2 = molecular target: T1, SENP2 (Homo sapiens, UniProt Q9HC62); assay: Fluorogenic SENP2 assay, SUMO1-AMC substrate; assay type: biochemical; settings: n = 2
T1 construct: Human recombinant catalytic domain expressed in E. coli; purchased Enzo BML-UW9765; host or cells: E. coli
T1 sequence (Q9HC62 396-560 limits assumed): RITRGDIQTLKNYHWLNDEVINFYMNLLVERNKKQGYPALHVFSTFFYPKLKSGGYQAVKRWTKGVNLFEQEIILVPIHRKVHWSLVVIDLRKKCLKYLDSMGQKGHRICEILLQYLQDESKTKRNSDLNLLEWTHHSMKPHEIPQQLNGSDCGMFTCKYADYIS
Method: The IC50 measurements were conducted at Reaction Biology Corporation, Malvern, PA, USA, with two replications using 10 concentrations starting at 200 μM with a three-fold dilution. Curve fits were performed where the enzyme activities at the highest concentration of compounds were less than 65%. UCH-L3 I was used as a control inhibitor. To SENP2 (Enzo Cat# BML-UW9765, Human recombinant catalytic domain expressed in E. coli.) in reaction buffer (50 mM HEPES, 150 mM NaCl, 0.5 mM EDTA, 1 mM DTT, pH 7.5, 0.01% CHAPS) was delivered the compound stock solution by acoustic technology (Echo550; nanoliter range) and subsequently incubated for 15 min at ambient temperature. The substrate SUMO1-AMC (R&D Systems Cat# UL-551-050, Lot# 07613314A, Fluorescence labeled full-length SUMO1 protein) was delivered to the well-plate to initiate the reaction. The enzyme activities were monitored (Ex/Em = 355/460 nm) as a time-course measurement of the increase in fluorescence signal from SUMO1-AMC for 90 min at ambient temperature. The data were analyzed by taking the slope (signal/time) of linear portion of measurement. The slope was calculated using Excel and the curve fits were performed using GraphPad Prism7 with a four-parameter least-squares fit. The final reaction conditions contained 0.015 nM SENP2 and 300 nM SUMO1/2 or 3-AMC.

UCHL1 = molecular target: T2, UCHL1 (Homo sapiens, UniProt P09936); assay: UCHL1 activity assay, Ubiquitin-AMC substrate; assay type: biochemical; settings: n = 2
T2 construct: purchased SignalChem U22-30H
T2 sequence (P09936 1-223): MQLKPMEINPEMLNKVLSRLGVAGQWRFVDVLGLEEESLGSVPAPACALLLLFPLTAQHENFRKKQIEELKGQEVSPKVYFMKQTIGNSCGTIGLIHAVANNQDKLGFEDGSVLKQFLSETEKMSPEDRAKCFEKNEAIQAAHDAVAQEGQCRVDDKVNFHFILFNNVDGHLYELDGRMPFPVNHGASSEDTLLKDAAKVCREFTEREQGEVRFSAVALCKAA
Method: (§1) IC50 measurements were conducted at Reaction Biology Corporation, Malvern, PA, USA, with two replications using 10 concentrations starting at 200 μM with three-fold dilution. Curve fits were performed where the enzyme activities at the highest concentration of compounds were less than 65%. UCHL1 II was used as a control inhibitor. The procedure was performed analogous to the fluorogenic SENP2 assay described in 3.3.2. using the UCHL1 enzyme (SignalChem Cat# U22-30H) and Ubiquitin-AMC substrate (Enzo Cat# BML-SE211-0025). The final reaction conditions contained 0.2 nM UCHL1 and 100 nM Ubiquitin-AMC.

Ataxin-3 = molecular target: T3, Ataxin-3 (Homo sapiens, UniProt P54252); assay: Ataxin-3 activity assay, Ubiquitin-AMC substrate; assay type: biochemical; settings: n = 2
T3 construct: purchased BPS 80399
Method: as §1, with “the Ataxin-3” for “the UCHL1”, “enzyme (BPS” for “enzyme (SignalChem”, “Cat# 80399)” for “Cat# U22-30H)”, “contained 500” for “contained 0.2”, “nM Ataxin-3” for “nM UCHL1”

SENP1 [1] = molecular target: T4, SENP1 (Homo sapiens, UniProt Q9P0U3); assay: Fluorogenic SENP1 assay, SUMO1-AMC substrate; assay type: biochemical; settings: for pIC50: SUMO1-AMC 300 nM, 0.02 nM SENP1, interval in parentheses, read-out: IC50 SENP1; for LE (ligand efficiency): calculated: 1.4(-logIC50)/N
T4 construct: Human recombinant, His6-SENP1 Catalytic Domain; His6 (N); purchased Boston Biochem (Bio-Techne AG) E-700
T4 sequence (Q9P0U3 450-613 limits assumed): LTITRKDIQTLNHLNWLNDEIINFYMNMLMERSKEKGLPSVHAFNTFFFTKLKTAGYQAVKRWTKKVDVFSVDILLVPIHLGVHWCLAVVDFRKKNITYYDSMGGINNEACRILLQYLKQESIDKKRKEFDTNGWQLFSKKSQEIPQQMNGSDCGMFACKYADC
Method: Human recombinant, His6-SENP1 Catalytic Domain (Boston Biochem Cat# E-700, Bio-Techne AG, Zug, Switzerland) was prepared in reaction buffer (50 mM HEPES, 150 mM NaCl, 0.5 mM EDTA, 1 mM DTT, pH 7.5, 0.01% CHAPS). To this solution, a 20 mM or 50 mM inhibitor stock solution in DMSO was added and the mixture was incubated for 15 min at ambient temperature. […] The slope was calculated using Excel and the curve fits were performed using GraphPad Prism7 with a four-parameter least-squares fit. The final reaction conditions contained 0.02 nM SENP1 and 300 nM SUMO1/2 or 3-AMC).

SENP1 [2] = molecular target: T4, SENP1; assay: Photo crosslinking experiments with SENP1; assay type: binding; settings: probe 200 µM, SENP1 10 µM, UV 30 min
Method: A buffer exchange of the commercially available 6 × His-SENP1 Protein (Boston Biochem Cat# E-700) to a 50 mM HEPES, 150 mM NaCl; 0.5 mM EDTA, 1 mM DTT, pH 7.5 was performed. A total of 200 μM of the photo affinity probe 56 with or without competitor molecule 11 (400 μM) was incubated in 10 uM SENP1 for 30 min at 0 °C. Subsequently, the mixtures were irradiated in a Proma UV exposure unit equipped with four 8 Watt lamps (Hitachi FL8BL-8, ~350 nm) for 30 min at 0 °C. Then, 50 µL of the crosslinked proteins were mixed with freshly prepared click mix solution (50 μL; 1 mM CuSO4, 1 mM TCEP, 100 uM THPTA from a 5 mM DMSO stock, dissolved in Milli-Q Water) and a 10 mM stock solution of azide fluor 545 (1 μL) and incubated at 0 °C for 14 h. […] Protein samples for SDS-PAGE were first prepared in 1 × Laemmli sample buffer (diluted from 4 × Laemmli sample buffer (ROTI®Load), and subsequently denatured at 100 °C for 15 min. After SDS-PAGE gel electrophoresis separation, the fluorescence was visualized (Ex. 520 nm, Em. 575 nm) on the SDS PAGE gel using ImageQuant^TM 4000 LAS (GE Healthcare, Chicago, IL, USA). Secondly, the gels were stained with Bio-Safe Coomassie Brilliant Blue G-250 (BioRad) for 60 min. De-staining was performed with 40% (v/v) methanol, 10% (v/v) glacial acetic acid, 50% (v/v) Milli-Q water until protein bands became visible.

SENP1 [3] = molecular target: T4, SENP1; assay: Fluorogenic SENP1 assay, SUMO2-AMC substrate; assay type: biochemical; settings: n = 2
Method: (§2) Human recombinant, His6-SENP1 Catalytic Domain (Boston Biochem Cat# E-700, Bio-Techne AG, Zug, Switzerland) was prepared in reaction buffer (50 mM HEPES, 150 mM NaCl, 0.5 mM EDTA, 1 mM DTT, pH 7.5, 0.01% CHAPS). To this solution, a 20 mM or 50 mM inhibitor stock solution in DMSO was added and the mixture was incubated for 15 min at ambient temperature. […] The data were analyzed by taking the slope (signal/time) of the linear portion of measurement. The slope was calculated using Excel and the curve fits were performed using GraphPad Prism7 with a four-parameter least-squares fit. The final reaction conditions contained 0.02 nM SENP1 and 300 nM SUMO1/2 or 3-AMC).

SENP1 [4] = molecular target: T4, SENP1; assay: Fluorogenic SENP1 assay, SUMO3-AMC substrate; assay type: biochemical; settings: n = 2
Method: as §2

T3 sequence (P54252 whole entry): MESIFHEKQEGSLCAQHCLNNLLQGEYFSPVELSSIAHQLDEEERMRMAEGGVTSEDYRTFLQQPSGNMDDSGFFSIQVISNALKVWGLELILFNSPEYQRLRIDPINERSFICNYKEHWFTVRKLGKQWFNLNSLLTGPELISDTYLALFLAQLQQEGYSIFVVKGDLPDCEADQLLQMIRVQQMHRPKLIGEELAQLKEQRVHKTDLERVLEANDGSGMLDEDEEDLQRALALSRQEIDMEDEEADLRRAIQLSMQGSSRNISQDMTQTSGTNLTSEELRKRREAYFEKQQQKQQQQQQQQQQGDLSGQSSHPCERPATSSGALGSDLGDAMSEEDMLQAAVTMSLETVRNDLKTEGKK

Compound	pIC50 (SENP2)	pIC50 (UCHL1)	pIC50 (SENP1 [1])	covalent labelling of SENP1 by photo probe (TAMRA-azide fluorescence) (SENP1 [2])	melting point	pIC50 (SENP1 [3])	pIC50 (SENP1 [4])	LE (ligand efficiency) (SENP1 [1])	pIC50 (Ataxin-3)
O=C(COC(=O)c1ccc(NC(=O)c2cccc(OCc3ccccc3)c2)cc1)c1ccc(Cl)cc1 [Compound 7, reference compound]	5.03	4.19							< 4.00
O=C1Nc2ccccc2NC12CCOCC2 [Compound 31, 3′,4′-Dihydro-1′H-spiro[oxane-4,2′-quinoxalin]-3′-one]			3.63		211 to 226 °C (dec.)			0.32	
COC(=O)c1cccc2c1NC(=O)C1(CCCC1)N2 [Compound 38, Methyl 3′-oxo-3′,4′-dihydro-1′H-spiro[cyclopentane-1,2′-quinoxaline]-5′-carboxylate]			4.21		147 to 149 °C			0.33	

Further lines, with some results ahead:

pIC50 (SENP2)	pIC50 (UCHL1)	pIC50 (SENP1 [1])	covalent labelling of SENP1 by photo probe (TAMRA-azide fluorescence) (SENP1 [2])	melting point	pIC50 (SENP1 [3])	pIC50 (SENP1 [4])	LE (ligand efficiency) (SENP1 [1])	Compound	pIC50 (Ataxin-3)
		4.62	fluorescent band was visible					C#CCCC1(CCC(=O)N2c3ccccc3NC(=O)C23CCCC3)N=N1 [Compound 56, 1′-{3-[3-(But-3-yn-1-yl)-3H-diazirin-3-yl]propanoyl}-3′,4′-dihydro-1′H-spiro[cyclopentane-1,2′-quinoxalin]-3′-one]	
5.24	3.88	5.00		231 to 233 °C	4.74	4.64		O=C(Cn1nnc(-c2ccccc2)n1)N1c2cscc2NC(=O)C12CCCC2 [Compound 55, 1′-[2-(5-Phenyl-2H-1,2,3,4-tetrazol-2-yl)acetyl]-3′,4′-dihydro-1′H-spiro[cyclopentane-1,2′-thieno [3,4-b]pyrazin]-3′-one]	< 4.00
		4.42		203 °C (dec.)				O=C(Cn1cc(Cc2ccccc2)nn1)N1c2ccccc2NC(=O)C12CCCC2 [Compound 46, 1′-[2-(4-Benzyl-1H-1,2,3-triazol-1-yl)acetyl]-3′,4′-dihydro-1′H-spiro[cyclopentane-1,2′-quinoxalin]-3′-one]	
